# Article PMC3763632, “Radiosynthesis and Radiotracer Properties of a 7-(2-[^18F]Fluoroethoxy)-6-methoxypyrrolidinylquinazoline for Imaging of Phosphodiesterase 10A with PET” (Pharmaceuticals, 2012)
# Columns and labels:
# PDE10A = target: T1, PDE10A (Rattus norvegicus, UniProt Q9QYJ6); assay: In vitro autoradiography on sagittal rat brain slices; type: binding; conditions: 25 nM [18F]IV
# T1 construct: Frozen sagittal brain sections (12 μm) obtained from female SPRD rats (8–10 weeks); from tissue; host or cells: rat brain sections (female SPRD rats)
# T1 sequence (Q9QYJ6 1-794): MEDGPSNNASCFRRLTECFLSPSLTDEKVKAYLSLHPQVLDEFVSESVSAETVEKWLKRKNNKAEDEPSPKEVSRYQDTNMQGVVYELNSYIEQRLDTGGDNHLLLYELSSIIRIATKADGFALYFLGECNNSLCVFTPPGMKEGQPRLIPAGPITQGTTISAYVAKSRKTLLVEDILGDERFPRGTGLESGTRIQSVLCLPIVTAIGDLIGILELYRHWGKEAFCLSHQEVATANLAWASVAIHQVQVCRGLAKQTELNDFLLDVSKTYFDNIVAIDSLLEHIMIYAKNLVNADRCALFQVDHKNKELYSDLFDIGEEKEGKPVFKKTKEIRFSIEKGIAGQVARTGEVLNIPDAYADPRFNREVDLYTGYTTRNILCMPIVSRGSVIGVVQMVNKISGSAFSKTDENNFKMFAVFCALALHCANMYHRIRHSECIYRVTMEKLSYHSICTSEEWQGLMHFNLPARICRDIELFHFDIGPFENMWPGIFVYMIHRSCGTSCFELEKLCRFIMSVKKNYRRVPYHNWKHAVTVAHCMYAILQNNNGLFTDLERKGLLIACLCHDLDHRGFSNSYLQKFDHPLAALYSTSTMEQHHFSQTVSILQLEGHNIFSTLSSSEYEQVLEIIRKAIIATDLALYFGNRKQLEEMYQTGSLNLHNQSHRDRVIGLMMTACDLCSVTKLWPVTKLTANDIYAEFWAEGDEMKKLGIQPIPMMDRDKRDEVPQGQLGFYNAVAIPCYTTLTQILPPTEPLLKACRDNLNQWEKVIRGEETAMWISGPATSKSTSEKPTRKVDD
# Source text: Figure 3 Representative color-coded autoradiographic images of sagittal rat brain slices. […] CP, caudate putamen; NA, nucleus accumbens; OT, olfactory tubercle; Th, thalamus; Hi, hippocampus; SN, substantia nigra; Cb, cerebellum; Co, cortex; OB, olfactory bulb; PN, pontine nuclei.
# This pattern corresponds with the immunohistochemical localization of PDE10A in rat brain described in Seeger et al..
# Therefore, species-specific patterns of PDE expression have to be considered in the development of PDE10A targeting PET ligands based on the herein reported quinazoline structures. […]
# Frozen sagittal brain sections (12 μm) obtained from female SPRD rats (8–10 weeks) were thawed, dried in a stream of cold air, preincubated for 20 min with 50 mM TRIS-HCl, pH 7.4, at room temperature, and dried again. […] After incubation, sections were washed twice for 2 min with 50 mM TRIS-HCl, pH 7.4 at 4 °C, dipped briefly in ice-cold deionized water (5 s), dried in a stream of cold air, and exposed for 17 h to ^18F-sensitive storage phosphor screens, which were analyzed using the BAS-1800 II system (see above).
# [1] = Radioligand stability in vivo (metabolism in brain, plasma, urine); set-up: species or system CD-1 mice; conditions: mice
# Protocol: The metabolic fate of [^18F]IV was investigated in brain, plasma and urine samples of CD1-mice at 30 and 60 min p.i. Proteins were precipitated with acetonitrile and extraction efficiencies of 96.4% for brain homogenate, 90.2% for plasma and 89.4% for urine were obtained, indicating sufficient recovery rates. The supernatants of each material were analyzed by radio-TLC and analytical radio-HPLC, whereof two representative chromatograms are given in Figure 4.
# A single lipophilic metabolite was detected representing only 4.2% of total radioactivity at 60 min p.i. Therefore a major impairment of the imaging properties of [^18F]IV in vivo should not be expected. The same radiometabolite was detected in plasma with 23.5% and 22.0% of the total radioactivity at 30 and 60 min p.i., while the parent radiotracer [^18F]IV accounted for 69.5% and 70.1%, respectively.
# In urine the metabolic profile is distinctly different. While the non-metabolized [^18F]IV and the single plasma- and brain-related radiometabolite accounted for only ~1% of the total radioactivity in urine, further radiometabolites were detected. The main three of them represent 11%, 12% and 44% of the total radioactivity. In contrast to brain and plasma samples, in urine free [^18F]fluoride could be detected, although at a low level of only ~5% of total radioactivity.
# After injection via the tail vein of ~150 MBq of [^18F]IV in […] isotonic solution, mice were sacrificed at 30 or 60 min p.i. (n = 2 per time). Urine and blood samples were obtained, and whole brains were isolated and homogenized in 50 mM TRIS-HCl, pH 7.4/4 °C, in a borosilicate glass cylinder by 10 strokes of a PTFE plunge at a speed of 1,000 rpm using a Potter S Homogenizer (B. Braun Melsungen AG, Germany). Plasma samples were obtained by centrifugation of blood at 2,000 g and 4 °C for 10 min. Extractions of brain homogenate, plasma and urine samples were done by treatment with ice-old acetonitrile (1:5 v/v; 2 min vortex mixing, Vortex-Genie 2, Scientific Industries Inc., NY, USA; 10 min incubation on ice) and centrifugation (6,000 rpm, 4 °C, 5 min; EBA 12R, Andreas Hettich GmbH & Co. KG, Tuttlingen, Germany). The supernatants were stored separately. Sediments of brain and plasma samples were re-suspended in 500 μL ice-cold acetonitrile and extraction was repeated. Supernatants of each specimen were combined and slowly evaporated at 70 °C under nitrogen stream. […]
smiles,measurement,setting,value
"COc1cc2c(N3CC[C@@H](Oc4cnc5ccccc5n4)C3)ncnc2cc1OCC[18F] [[^18F]IV, (R)-7-(2-[^18F]Fluoroethoxy)-6-methoxy-4-(3-(quinoxalin-2-yloxy)pyrrolidin-1-yl)quinazoline]","binding of [18F]IV on rat brain slices, co-incubation with IV","PDE10A; 10 μM IV, 60 min",saturable binding
same,inhibition of [18F]IV binding on rat brain slices by MP-10,"PDE10A; 10 μM MP-10, 60 min",not completely inhibited
same,"parent [18F]IV, share of total radioactivity","[1]; brain, 30 min p.i.",94.3%
same,"parent [18F]IV, share of total radioactivity","[1]; brain, 60 min p.i.",93.1%
same,"parent [18F]IV, share of total radioactivity","[1]; plasma, 30 min p.i.",69.5%
same,"parent [18F]IV, share of total radioactivity","[1]; plasma, 60 min p.i.",70.1%
